For 19 molecules, TGI results are on record in PubChem BioAssay (NCI).

Molecules are shown by their SMILES.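 Cultured in 96-well plates, cells were exposed to test compound for 48 hours across five concentrations. TGI: concentration producing complete growth inhibition.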 Where only a bound is given, the exact number is not on record here.

Among the test systems are HS 578T breast; M14 melanoma; CCRF-CEM leukemia; K-562 leukemia; MDA-MB-435; COLO 205 colon; MALME-3M melanoma; ACHN renal; RXF 393 renal; RPMI-8226 leukemia.
Experiment in all cases: NCI tumour cell line growth inhibition, 48 h

Take `CC(=O)Oc1ccc2c(c1)CC[C@@H]1C2[C@@H](O[N+](=O)[O-])C[C@@]2(C)C1CC[C@@H]2O` (stereo not given in full): the TGI is 51.1 µM in the test with HS 578T breast; > 100 µM in the test on M14 melanoma; > 83.2 µM with CCRF-CEM leukemia; 72.1 µM in the test with K-562 leukemia; 56.2 µM in the test on MDA-MB-435; > 88.7 µM in the test with COLO 205 colon. The TGI in the test on MALME-3M melanoma is > 100 µM; in the test on ACHN renal, > 100 µM; with RXF 393 renal it was > 100 µM; in the test with RPMI-8226 leukemia it was 69.7 µM.
In the case of `CO[P@]1(=O)O[C@@H](c2ccccc2)[C@H](O)[C@]1(O)c1ccccc1`, the TGI in the test with HS 578T breast, in the test with M14 melanoma, with CCRF-CEM leukemia, in the test with K-562 leukemia, in the test on MDA-MB-435 and in the test with COLO 205 colon was > 100 µM throughout. Further, the TGI in the test with MALME-3M melanoma, with ACHN renal, with RXF 393 renal and with RPMI-8226 leukemia was > 100 µM in each case.
Take `NNC(=O)c1ccccc1NC(=O)/C(=C/c1ccccc1)NC(=O)c1ccccc1`: the TGI in the test on HS 578T breast, with M14 melanoma, with CCRF-CEM leukemia, in the test on K-562 leukemia, in the test on MDA-MB-435 and in the test with COLO 205 colon was > 100 µM throughout. Further, the TGI in the test with MALME-3M melanoma, in the test on ACHN renal, in the test on RXF 393 renal and in the test with RPMI-8226 leukemia was > 100 µM in each case.
On to `Cn1c(N/N=C/c2ccc(Cl)cc2)nc(-c2ccc(Cl)cc2)c(C#N)c1=O`, for which the TGI in the test with HS 578T breast is 86.4 µM; in the test on M14 melanoma, 42 µM; in the test on CCRF-CEM leukemia, > 100 µM; in the test on K-562 leukemia, > 100 µM; in the test on MDA-MB-435 it was > 100 µM; with COLO 205 colon, > 100 µM. In addition, the TGI is 91.7 µM with MALME-3M melanoma, > 100 µM in the test with ACHN renal, 57.8 µM with RXF 393 renal and > 100 µM with RPMI-8226 leukemia.
`COC(=O)C(Cc1ccccc1)NC(=O)CNC(=O)CSc1nnc(COc2ccc(Cl)cc2)n1-c1ccccc1` (stereo not given): the TGI in the test with HS 578T breast is 70.4 µM; in the test with M14 melanoma, 31.7 µM; in the test with CCRF-CEM leukemia, 7.42 µM; with K-562 leukemia, > 75.6 µM; with MDA-MB-435 it was 35 µM; with COLO 205 colon, 31.9 µM. Further, the TGI in the test on MALME-3M melanoma is 34.5 µM; in the test on ACHN renal it was 27.2 µM; with RXF 393 renal, 33.1 µM; in the test with RPMI-8226 leukemia, 21.8 µM.
`CN(C)Cc1cc(C(=O)O)cc(CN(C)C)c1O`: the TGI with HS 578T breast, with M14 melanoma, in the test on CCRF-CEM leukemia, in the test on K-562 leukemia, with MDA-MB-435 and in the test on COLO 205 colon was > 100 µM each time. For the same molecule, the TGI in the test on MALME-3M melanoma, in the test on ACHN renal, with RXF 393 renal and with RPMI-8226 leukemia was > 100 µM in each case.
Regarding `CN(C)CCCOC(=O)C(O)(Cc1ccccc1)C1CC1` (stereo not given), the TGI in the test with HS 578T breast, in the test on M14 melanoma, in the test with CCRF-CEM leukemia, with K-562 leukemia, in the test on MDA-MB-435 and with COLO 205 colon was > 100 µM throughout. The TGI in the test on MALME-3M melanoma, in the test with ACHN renal, with RXF 393 renal and in the test on RPMI-8226 leukemia was > 100 µM each time.
On to `O=C(CSc1nc2ccc(I)cc2c(=O)n1Cc1ccccc1)Nc1ccc(Br)cc1`, for which the TGI in the test with HS 578T breast is 62.7 µM; in the test on M14 melanoma, > 100 µM; in the test with CCRF-CEM leukemia, > 100 µM; in the test on K-562 leukemia, > 100 µM; in the test with MDA-MB-435, > 100 µM; in the test on COLO 205 colon, > 100 µM. In addition, the TGI with MALME-3M melanoma is 61.6 µM; in the test with ACHN renal, > 100 µM; with RXF 393 renal, > 100 µM; with RPMI-8226 leukemia, > 100 µM.
`CCCCCCCCOCC1S(=O)(=O)OCCOS1(=O)=O`: the TGI with HS 578T breast, with M14 melanoma, with CCRF-CEM leukemia, in the test with K-562 leukemia, in the test with MDA-MB-435 and in the test with COLO 205 colon was > 100 µM throughout. The TGI with MALME-3M melanoma, in the test on ACHN renal, in the test with RXF 393 renal and in the test on RPMI-8226 leukemia was > 100 µM throughout.
Regarding `CCCCCc1c(CCCC)c(=O)[nH]c2cc(CNCC(OC)OC)ccc12`, the TGI in the test on HS 578T breast was found to be 38.7 µM; in the test on M14 melanoma, 8.1 µM; in the test on CCRF-CEM leukemia, 19.2 µM; in the test on K-562 leukemia, 5.63 µM; with MDA-MB-435, 24 µM; in the test on COLO 205 colon, 6.24 µM. Also, the TGI was 7.83 µM in the test with MALME-3M melanoma, 27.8 µM in the test on ACHN renal, 27.1 µM in the test with RXF 393 renal and 13.8 µM with RPMI-8226 leukemia.
In the case of `c1ccc2c(c1)SC1Sc3ccccc3[S+]21` (stereo not given), the TGI with HS 578T breast is > 100 µM; in the test with M14 melanoma, 87.7 µM; in the test on CCRF-CEM leukemia, 49.6 µM; with K-562 leukemia, > 23.3 µM; in the test with MDA-MB-435, 60.9 µM; in the test on COLO 205 colon, 30.1 µM. Further, the TGI with MALME-3M melanoma is 15.5 µM; in the test with ACHN renal, 20.4 µM; with RXF 393 renal it was > 73.1 µM; in the test on RPMI-8226 leukemia, 49.9 µM.
As to `O=C(c1cccs1)N(C(=O)N1CCC(c2ccccc2)CC1)c1ccccc1`, the TGI in the test on HS 578T breast was > 100 µM; with M14 melanoma it was > 100 µM; in the test on CCRF-CEM leukemia, > 100 µM; in the test on K-562 leukemia, > 100 µM; with MDA-MB-435, > 100 µM; in the test with COLO 205 colon it was 72.2 µM. Moreover, the TGI in the test on MALME-3M melanoma was > 100 µM; with ACHN renal it was > 100 µM; in the test with RXF 393 renal it was > 100 µM; in the test on RPMI-8226 leukemia it was 70.3 µM.
Regarding `Cc1ccc2[nH]c(=O)c(-c3cnc(=O)[nH]n3)c(O)c2c1`, the TGI in the test on HS 578T breast, in the test on M14 melanoma, in the test on CCRF-CEM leukemia, in the test on K-562 leukemia, in the test with MDA-MB-435 and in the test on COLO 205 colon was > 100 µM in each case. Also, the TGI with MALME-3M melanoma, in the test on ACHN renal, in the test with RXF 393 renal and in the test on RPMI-8226 leukemia was > 100 µM each time.
On to `CC(Nc1cc(Cl)cc(Cl)c1)c1ccncc1` (stereo not given), for which the TGI in the test with HS 578T breast was > 100 µM; with M14 melanoma, 33.4 µM; in the test on CCRF-CEM leukemia, 58 µM; in the test on K-562 leukemia it was > 100 µM; in the test with MDA-MB-435 it was 47.5 µM; in the test with COLO 205 colon, 29.8 µM. Moreover, the TGI with MALME-3M melanoma was 54.9 µM; with ACHN renal, 67.6 µM; in the test with RXF 393 renal it was 71.3 µM; in the test on RPMI-8226 leukemia it was 42.5 µM.
`Cc1cc2ccccc2c[n+]1CC(=O)CC([O-])(C(F)(F)F)C(F)(F)F`: the TGI in the test with HS 578T breast, in the test with M14 melanoma, in the test with CCRF-CEM leukemia, in the test with K-562 leukemia, in the test with MDA-MB-435 and in the test on COLO 205 colon was > 100 µM in each case. Also, the TGI in the test with MALME-3M melanoma, in the test on ACHN renal, with RXF 393 renal and in the test with RPMI-8226 leukemia was > 100 µM throughout.
Consider `CN(C)c1ccc(/C=N/NC2=N/C(=C\c3ccco3)C(=O)N2)cc1`, for which the TGI in the test on HS 578T breast, in the test on M14 melanoma, in the test on CCRF-CEM leukemia, with K-562 leukemia, with MDA-MB-435 and with COLO 205 colon was > 100 µM each time. In addition, the TGI with MALME-3M melanoma, in the test with ACHN renal, in the test with RXF 393 renal and with RPMI-8226 leukemia was > 100 µM each time.
For `CN(C)CCOc1ccc(-c2c(Oc3ccc(Cl)cc3)c(=O)oc3ccccc23)cc1`, the TGI with HS 578T breast is 24.8 µM; in the test with M14 melanoma, 3.12 µM; in the test on CCRF-CEM leukemia, > 29 µM; in the test with K-562 leukemia, > 60 µM; in the test with MDA-MB-435 it was > 31.2 µM; with COLO 205 colon, > 39 µM. The TGI with MALME-3M melanoma was 25.3 µM; in the test on ACHN renal, > 48.5 µM; in the test on RXF 393 renal, > 48.3 µM; in the test on RPMI-8226 leukemia, 43.6 µM.
For the molecule `COc1ccc(N=C/C=C/Nc2ccc(OC)cc2)cc1`, the TGI in the test with HS 578T breast is 38.8 µM; in the test on M14 melanoma, 23.2 µM; in the test on CCRF-CEM leukemia, > 37.2 µM; with K-562 leukemia, 31 µM; in the test on MDA-MB-435, 24 µM; in the test with COLO 205 colon, 16.3 µM. Further, the TGI with MALME-3M melanoma is 23.9 µM; in the test on ACHN renal, 29 µM; with RXF 393 renal, 18.5 µM; with RPMI-8226 leukemia, 30.4 µM.
Turning to `c1ccc(N=NNNc2ccc(-c3nc4ccccc4[nH]3)cc2)cc1`, the TGI was 89.1 µM with HS 578T breast; > 100 µM in the test on M14 melanoma; 56.1 µM with CCRF-CEM leukemia; 94.6 µM with K-562 leukemia; > 100 µM in the test on MDA-MB-435; > 100 µM in the test with COLO 205 colon. For the same molecule, the TGI in the test on MALME-3M melanoma is 77.3 µM; in the test on ACHN renal, > 100 µM; with RXF 393 renal it was 55.8 µM; in the test with RPMI-8226 leukemia, 42.4 µM.
